{
  "source": "patent US7273848B2",
  "about": "“Apolipoprotein A-I agonists and their use to treat dyslipidemic disorders” (priority 1997, dated 2007)",
  "experiment": "Lipid binding by fluorescence spectroscopy",
  "experimental": "The lipid binding properties of the peptides synthesized in Section 6, supra, were tested by fluorescence measurements with labeled peptides, in the present case Tryptophane (Trp or W) or Naphtylalanine (Nal). The fluorescence spectra were recorded on a Fluoromax from Spex (Jobin-Yvon) equipped with a Xenon lamp of 150 W, two monochromators (excitation and emission), a photomultiplier R-928 for detection sensitive in the red up to 850 nm and a thermoelectric magnetic stirred cell holder. Quartz Suprasil cuvettes were used for measurements in the micromolar concentration range. A device of variable slits (from 0.4 to 5 nm) allows modulation of the incident and emitted intensities according to the concentration of peptide used. The reported values are in general the average of between 2 to 4 spectra. The peptide concentration is determined by absorption spectrometry on a Philips PU 8800 using the absorption band of the Trp (ε280 nm=5,550 M^−1 cm^−1 in Tris buffer) or the Nal (ε224 nm =92,770 M^−1 cm^−1 in methanol)\nFluorescence spectra of the peptides were recorded between 290 nm and 450 nm in Tris-HCl buffer (20 mM, pH=7.5), in the presence and absence of lipidic vesicles. The small unilamellar vesicles were formed after rehydration in buffer of the lyophilized phospholipids, dispersion and tip sonification under a N2 stream. The lipids used were either Egg PC/Chol. (20:1) or POPC/Chol. (20:1). The spectra were recorded at a peptide concentration of 2 μM and at a temperature of 37° C. The fluorescence reference standard in the case of Trp was N-acetyltryptophanylamide (NATA).\nLipid binding studies were done through progressive lipidic vesicle addition to the peptide in solution at 2 μM (slits: 5 nm in excitation and 1.5 nm in emission). Dilution effects were taken into account for the fluorescence intensity determination. The lipid concentrations were varied from 10 to 600 μM and the molar ratio of lipid to peptide (Ri) was varied from 5 to 300. The wavelength of excitation was set at 280 nm for both Trp and Nal.\nThe data were directly recorded and treated by an IBM-PC linked to the spectrofluorimeter through the DM3000F software from Spex. The spectra were corrected by substraction of the solvent contribution and by application of a coefficient given by the constructor taking into account the variation of the photomultiplier response versus the wavelength.\nThe fluorescence spectra of the peptides were characterized by the wavelength at their maximum of fluorescence emission and by their quantum yield compared to NATA in the case of peptides labeled with a tryptophane. The process of binding to lipids was analyzed by calculating the shift of the wavelength at the maximum of fluorescence emission, (λmax), and the variation of the relative fluorescence intensity of emission versus the lipid concentration. The relative fluorescence intensity is defined as the following ratio: (I-I0)λmax/I0λmax. I and I0 are both measured at the (λmax) corresponding to the initial free state of the peptide, i.e., without lipids. I is the intensity at a defined lipid to peptide ratio and I0 is the same parameter measured in absence of lipids. The absence of these variations is relevant of the absence of interactions of the peptides with the lipids.",
  "note": "No end group written: not given here.",
  "data": [
    {"sequence": "PVLELFENLWERLLDALQKKLK [peptide 149]", "values": [
      {"measurement": "lipid to peptide molar ratio at which burying of the tryptophane residue is maximal", "setting": "EPC/Chol (20:1) SUVs", "result": "about 30"},
      {"measurement": "λmax (nm)", "setting": "Ri 0 (buffer, no lipids), 2 μM", "result": 347, "unit": "nm"},
      {"measurement": "I/Io", "setting": "Ri 0, 2 μM peptide, 37° C.", "result": 0},
      {"measurement": "I/Io", "setting": "Ri 5", "result": 19.7},
      {"measurement": "λmax (nm)", "setting": "Ri 5", "result": 334.5, "unit": "nm"},
      {"measurement": "I/Io", "setting": "Ri 10", "result": 31.4},
      {"measurement": "λmax (nm)", "setting": "Ri 10", "result": 329, "unit": "nm"},
      {"measurement": "I/Io", "setting": "Ri 30", "result": 49.4},
      {"measurement": "λmax (nm)", "setting": "Ri 30", "result": 325.5, "unit": "nm"},
      {"measurement": "I/Io", "setting": "Ri 60", "result": 64.3},
      {"measurement": "λmax (nm)", "setting": "Ri 60", "result": 325, "unit": "nm"},
      {"measurement": "I/Io", "setting": "Ri 100", "result": 77},
      {"measurement": "λmax (nm)", "setting": "Ri 100", "result": 325.5, "unit": "nm"},
      {"measurement": "I/Io", "setting": "Ri 200", "result": 84},
      {"measurement": "λmax (nm)", "setting": "Ri 200", "result": 325, "unit": "nm"},
      {"measurement": "wavelength for the tryptophane maximum fluorescence emission after binding", "setting": "bound to EPC/Chol (20:1) SUVs", "result": 325, "unit": "nm"},
      {"measurement": "lipid binding (in words)", "setting": "small unilamellar vesicles", "result": "binds very effectively"}
    ]}
  ]
}
